Values of other authors as cited in patent US20040097717A1, “Control of aerial branching” (priority 2000, published 2004).

Experiments:
Phaseolus vulgaris = details: decapitated Phaseolus vulgaris, IAA application (Knox and Wareing, 1984)
lateral buds = details: exogenous application to lateral buds (Tames et al., 1979)

SMILES | lateral bud elongation / decrease in ABA level after decapitation (Phaseolus vulgaris) | lateral bud elongation (lateral buds)
O=C(O)Cc1c[nH]c2ccccc12 [IAA] | reversed | –
CC1=CC(=O)CC(C)(C)[C@@]1(O)/C=C/C(C)=C\C(=O)O [ABA, abscisic acid] | – | inhibited elongation
